According to patent US9809623B2, “α4β7 peptide monomer and dimer antagonists” (Protagonist Therapeutics, Inc., priority 2014, dated 2017):
Numbered stars: 1 amine (or outer) side, 2 acyl side, 3 side chain; on linkers, the order of the positions; unused ones are H or OH. Bridge positions count the residues as written; N and C are the ends. Square brackets hold non-standard residues; d marks the D form. Peptide text beside a SMILES is read from it. I, II: the chains in the order shown. Phe(4-tBu) = CC(C)(C)c1ccc(C[C@H](N)C(=O)O)cc1; 2Nal = N[C@@H](Cc1ccc2ccccc2c1)C(=O)O; Diglycolyl = O=C(COCC(=O)[*:2])[*:1]; NMeR = CN[C@@H](CCCNC(=N)N)C(=O)O; β3hE = N[C@@H](CCC(=O)O)CC(=O)O; Pen = CC(C)(S)[C@H](N)C(=O)O

Assays:
α4β7 = α4β7 (Homo sapiens, UniProt P13612+P26010); assay: α4β7-MAdCAM Cell Adhesion Assay (RPMI 8866 human cells); type: cell-based; design: host or cells: RPMI 8866 human B lymphoblastoid cells; conditions: Table 4-B; read-out: Cell Adhesion α4β7 IC50
Chain of α4β7 (P13612 34-1032): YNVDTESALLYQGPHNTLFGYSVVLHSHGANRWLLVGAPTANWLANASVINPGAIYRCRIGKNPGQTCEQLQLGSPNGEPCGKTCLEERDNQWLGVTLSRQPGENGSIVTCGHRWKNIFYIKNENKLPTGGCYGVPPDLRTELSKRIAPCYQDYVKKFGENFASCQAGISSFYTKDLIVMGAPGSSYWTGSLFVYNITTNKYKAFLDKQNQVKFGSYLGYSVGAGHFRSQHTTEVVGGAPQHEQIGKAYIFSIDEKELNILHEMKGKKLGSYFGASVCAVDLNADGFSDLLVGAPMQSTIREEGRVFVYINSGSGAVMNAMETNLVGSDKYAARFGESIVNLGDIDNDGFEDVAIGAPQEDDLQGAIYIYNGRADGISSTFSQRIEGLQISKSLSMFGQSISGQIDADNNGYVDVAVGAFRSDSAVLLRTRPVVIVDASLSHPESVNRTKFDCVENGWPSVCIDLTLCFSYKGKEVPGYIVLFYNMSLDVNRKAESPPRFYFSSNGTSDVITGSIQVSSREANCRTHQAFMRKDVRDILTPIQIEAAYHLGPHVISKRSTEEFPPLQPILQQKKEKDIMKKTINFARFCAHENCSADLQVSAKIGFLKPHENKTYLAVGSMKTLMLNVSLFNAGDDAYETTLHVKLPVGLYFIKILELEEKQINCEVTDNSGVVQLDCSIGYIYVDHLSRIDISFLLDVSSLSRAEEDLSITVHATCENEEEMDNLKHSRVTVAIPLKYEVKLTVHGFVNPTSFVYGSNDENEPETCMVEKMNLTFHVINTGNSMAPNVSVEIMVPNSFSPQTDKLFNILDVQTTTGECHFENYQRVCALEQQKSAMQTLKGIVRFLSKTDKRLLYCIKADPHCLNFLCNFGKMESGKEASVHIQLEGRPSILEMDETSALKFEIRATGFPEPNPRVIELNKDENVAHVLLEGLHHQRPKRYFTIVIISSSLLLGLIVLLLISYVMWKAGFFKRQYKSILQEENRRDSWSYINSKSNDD
Chain of α4β7 (P26010 20-798): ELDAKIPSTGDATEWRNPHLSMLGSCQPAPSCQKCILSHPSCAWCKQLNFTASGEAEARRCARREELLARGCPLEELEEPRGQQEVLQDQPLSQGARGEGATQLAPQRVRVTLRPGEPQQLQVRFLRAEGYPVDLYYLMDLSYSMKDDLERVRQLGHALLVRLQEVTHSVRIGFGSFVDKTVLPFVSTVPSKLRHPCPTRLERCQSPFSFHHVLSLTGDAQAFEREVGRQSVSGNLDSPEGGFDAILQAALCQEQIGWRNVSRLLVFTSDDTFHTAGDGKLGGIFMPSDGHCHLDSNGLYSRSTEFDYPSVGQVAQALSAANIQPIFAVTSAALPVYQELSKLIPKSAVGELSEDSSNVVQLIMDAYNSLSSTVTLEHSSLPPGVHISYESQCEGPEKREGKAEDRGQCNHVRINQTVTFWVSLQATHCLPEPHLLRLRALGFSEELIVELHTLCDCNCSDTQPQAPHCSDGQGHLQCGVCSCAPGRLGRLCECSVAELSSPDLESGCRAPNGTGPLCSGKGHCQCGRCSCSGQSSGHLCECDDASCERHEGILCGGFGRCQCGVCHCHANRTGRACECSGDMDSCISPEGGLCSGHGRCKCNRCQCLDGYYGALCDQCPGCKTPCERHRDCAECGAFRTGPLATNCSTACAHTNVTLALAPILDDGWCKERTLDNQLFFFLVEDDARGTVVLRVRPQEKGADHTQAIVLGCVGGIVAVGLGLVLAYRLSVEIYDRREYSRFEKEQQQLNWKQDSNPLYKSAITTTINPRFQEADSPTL
Outline: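 Adhesion read-out: MTT absorbance at 570 nm minus no-cell wells, after three washes. Plates coated with rh MAdCAM-1/Fc received peptide dilutions plus 200,000 RPMI 8866 cells in Mn2+ (1 mM)-supplemented DMEM, 0.1% BSA, HEPES pH 7, incubated 30-45 min, 37 °C.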

α4β1 = α4β1 (Homo sapiens, UniProt P05556+P13612); assay: α4β1-VCAM Cell Adhesion Assay (Jurkat E6.1 human cells); type: cell-based; design: host or cells: Jurkat E6.1 human T cells; conditions: Table 4-B; read-out: Cell Adhesion α4β1 IC50
Chain of α4β1 (P13612 34-1032): as the sequence (P13612 34-1032) above
Chain of α4β1 (P05556 21-798): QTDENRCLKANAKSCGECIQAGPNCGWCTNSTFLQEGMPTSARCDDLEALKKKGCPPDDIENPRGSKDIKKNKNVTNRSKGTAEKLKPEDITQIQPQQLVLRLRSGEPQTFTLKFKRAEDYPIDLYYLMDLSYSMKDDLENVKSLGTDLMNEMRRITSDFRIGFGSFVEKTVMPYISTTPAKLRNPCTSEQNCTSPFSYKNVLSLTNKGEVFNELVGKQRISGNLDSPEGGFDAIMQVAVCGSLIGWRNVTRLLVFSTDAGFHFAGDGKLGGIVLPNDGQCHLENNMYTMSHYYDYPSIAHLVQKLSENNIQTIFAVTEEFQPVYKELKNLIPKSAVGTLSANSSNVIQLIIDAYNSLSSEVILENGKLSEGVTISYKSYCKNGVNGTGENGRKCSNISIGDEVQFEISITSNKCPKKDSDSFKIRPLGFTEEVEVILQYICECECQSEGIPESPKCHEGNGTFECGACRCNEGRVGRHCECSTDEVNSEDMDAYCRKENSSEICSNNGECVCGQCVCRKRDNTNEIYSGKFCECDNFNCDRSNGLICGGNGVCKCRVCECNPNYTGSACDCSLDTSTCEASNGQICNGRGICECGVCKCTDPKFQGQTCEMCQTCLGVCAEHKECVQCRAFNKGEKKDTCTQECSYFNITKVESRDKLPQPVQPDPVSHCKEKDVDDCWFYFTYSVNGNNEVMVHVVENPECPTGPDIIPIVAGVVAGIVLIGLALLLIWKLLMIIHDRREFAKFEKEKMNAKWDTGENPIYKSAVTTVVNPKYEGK
Outline: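 Jurkat E6.1 cells in DMEM with 0.1% BSA, 10 mM HEPES pH 7 and 1 mM MnCl2 were added (200,000/well) with serially diluted peptides to rh VCAM-1-Fc-coated wells (400 ng/well) for 30-45 min at 37 °C. Adherent cells after washing were quantified by MTT, absorbance 570 nm, with no-cell background subtracted for dose response.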

Row | SMILES | IC50 (α4β7) [nM] | IC50 (α4β1) [nM]
1 | CC(=O)N[C@@H]1C(=O)N(C)[C@@H](CCCNC(=N)N)C(=O)N[C@@H](CO)C(=O)N[C@@H](CC(=O)O)C(=O)N[C@@H]([C@@H](C)O)C(=O)N[C@@H](CC(C)C)C(=O)N[C@H](C(=O)N[C@@H](Cc2c[nH]c3ccccc23)C(=O)N[C@H](CCC(=O)O)C(=O)N[C@H](CCCCNC(=O)COCC(=O)NCCCC[C@@H](NC(=O)[C@@H](CCC(=O)O)NC(=O)[C@H](Cc2c[nH]c3ccccc23)NC(=O)[C@H]2NC(=O)[C@H](CC(C)C)NC(=O)[C@H]([C@@H](C)O)NC(=O)[C@H](CC(=O)O)NC(=O)[C@H](CO)NC(=O)[C@H](CCCNC(=N)N)N(C)C(=O)[C@@H](NC(C)=O)C(C)(C)SSC2(C)C)C(N)=O)C(N)=O)C(C)(C)SSC1(C)C [compound 211, (Ac-Pen-N-Me-R-S-D-T-L-Pen-W-e-k-NH2)2-DIG] (I: Ac-[Pen][NMeR]SDTL[Pen]W[dE][dK]-NH2 / II: Ac-[Pen][NMeR]SDTL[Pen]W[dE][dK]-NH2; disulfide I:1-I:7, II:1-II:7 (inferred); linker I:10-II:10 via Diglycolyl (inferred)) | 22 | > 100000
2 | CC(=O)N[C@@H]1C(=O)N(C)[C@@H](CCCNC(=N)N)C(=O)N[C@@H](CO)C(=O)N[C@@H](CC(=O)O)C(=O)N[C@@H]([C@@H](C)O)C(=O)N[C@@H](CC(C)C)C(=O)N[C@H](C(=O)N[C@@H](Cc2ccc3ccccc3c2)C(=O)N[C@@H](CCC(=O)O)C(=O)N[C@H](CCCCNC(=O)COCC(=O)NCCCC[C@@H](NC(=O)[C@H](CCC(=O)O)NC(=O)[C@H](Cc2ccc3ccccc3c2)NC(=O)[C@H]2NC(=O)[C@H](CC(C)C)NC(=O)[C@H]([C@@H](C)O)NC(=O)[C@H](CC(=O)O)NC(=O)[C@H](CO)NC(=O)[C@H](CCCNC(=N)N)N(C)C(=O)[C@@H](NC(C)=O)C(C)(C)SSC2(C)C)C(N)=O)C(N)=O)C(C)(C)SSC1(C)C [compound 212, (Ac-Pen-N-Me-R-S-D-T-L-Pen-2-Nal-E-k-NH2)2-DIG] (I: Ac-[Pen][NMeR]SDTL[Pen][2Nal]E[dK]-NH2 / II: Ac-[Pen][NMeR]SDTL[Pen][2Nal]E[dK]-NH2; disulfide I:1-I:7, II:1-II:7 (inferred); linker I:10-II:10 via Diglycolyl (inferred)) | 2.5 | > 100000
3 | CC(=O)N[C@@H]1C(=O)N(C)[C@@H](CCCNC(=N)N)C(=O)N[C@@H](CO)C(=O)N[C@@H](CC(=O)O)C(=O)N[C@@H]([C@@H](C)O)C(=O)N[C@@H](CC(C)C)C(=O)N[C@H](C(=O)N[C@@H](Cc2c[nH]c3ccccc23)C(=O)N[C@@H](CCC(=O)O)CC(=O)N[C@H](CCCCNC(=O)COCC(=O)NCCCC[C@@H](NC(=O)C[C@H](CCC(=O)O)NC(=O)[C@H](Cc2c[nH]c3ccccc23)NC(=O)[C@H]2NC(=O)[C@H](CC(C)C)NC(=O)[C@H]([C@@H](C)O)NC(=O)[C@H](CC(=O)O)NC(=O)[C@H](CO)NC(=O)[C@H](CCCNC(=N)N)N(C)C(=O)[C@@H](NC(C)=O)C(C)(C)SSC2(C)C)C(N)=O)C(N)=O)C(C)(C)SSC1(C)C [compound 213, [Ac-Pen-(N-Me-Arg)-Ser-Asp-Thr-Leu-Pen-Trp-(β-homoGlu)-(D-Lys)-NH2]2-DIG] (I: Ac-[Pen][NMeR]SDTL[Pen]W[β3hE][dK]-NH2 / II: Ac-[Pen][NMeR]SDTL[Pen]W[β3hE][dK]-NH2; disulfide I:1-I:7, II:1-II:7; linker I:10-II:10 via Diglycolyl) | 12 | > 100000
4 | CC(=O)N[C@@H]1C(=O)N(C)[C@@H](CCCNC(=N)N)C(=O)N[C@@H](CO)C(=O)N[C@@H](CC(=O)O)C(=O)N[C@@H]([C@@H](C)O)C(=O)N[C@@H](CC(C)C)C(=O)N[C@H](C(=O)N[C@@H](Cc2c[nH]c3ccccc23)C(=O)N[C@H](CCC(=O)O)C(=O)N[C@H](CCCCNC(=O)COCC(=O)NCCCC[C@@H](NC(=O)[C@@H](CCC(=O)O)NC(=O)[C@H](Cc2c[nH]c3ccccc23)NC(=O)[C@H]2NC(=O)[C@H](CC(C)C)NC(=O)[C@H]([C@@H](C)O)NC(=O)[C@H](CC(=O)O)NC(=O)[C@H](CO)NC(=O)[C@H](CCCNC(=N)N)N(C)C(=O)[C@@H](NC(C)=O)C(C)(C)SSC2(C)C)C(=O)O)C(=O)O)C(C)(C)SSC1(C)C [compound 216, (Ac-Pen-N-Me-R-S-D-T-L-Pen-W-e-k-OH)2-DIG] (I: Ac-[Pen][NMeR]SDTL[Pen]W[dE][dK]-OH / II: Ac-[Pen][NMeR]SDTL[Pen]W[dE][dK]-OH; disulfide I:1-I:7, II:1-II:7 (inferred); linker I:10-II:10 via Diglycolyl (inferred)) | 4.2 | > 100000
5 | CC(=O)N[C@@H]1C(=O)N(C)[C@@H](CCCNC(=N)N)C(=O)N[C@@H](CO)C(=O)N[C@@H](CC(=O)O)C(=O)N[C@@H]([C@@H](C)O)C(=O)N[C@@H](CC(C)C)C(=O)N[C@H](C(=O)N[C@@H](Cc2c[nH]c3ccccc23)C(=O)N[C@@H](CCC(=O)O)C(=O)N[C@H](CCCCNC(=O)COCC(=O)NCCCC[C@@H](NC(=O)[C@H](CCC(=O)O)NC(=O)[C@H](Cc2c[nH]c3ccccc23)NC(=O)[C@H]2NC(=O)[C@H](CC(C)C)NC(=O)[C@H]([C@@H](C)O)NC(=O)[C@H](CC(=O)O)NC(=O)[C@H](CO)NC(=O)[C@H](CCCNC(=N)N)N(C)C(=O)[C@@H](NC(C)=O)C(C)(C)SSC2(C)C)C(N)=O)C(N)=O)C(C)(C)SSC1(C)C [compound 217, (Ac-Pen-N-Me-R-S-D-T-L-Pen-W-E-k-NH2)2-DIG] (I: Ac-[Pen][NMeR]SDTL[Pen]WE[dK]-NH2 / II: Ac-[Pen][NMeR]SDTL[Pen]WE[dK]-NH2; disulfide I:1-I:7, II:1-II:7 (inferred); linker I:10-II:10 via Diglycolyl (inferred)) | 3.2 | > 100000
6 | CC(=O)N[C@@H]1C(=O)N(C)[C@@H](CCCNC(=N)N)C(=O)N[C@@H](CO)C(=O)N[C@@H](CC(=O)O)C(=O)N[C@@H]([C@@H](C)O)C(=O)N[C@@H](CC(C)C)C(=O)N[C@H](C(=O)N[C@@H](Cc2ccc(C(C)(C)C)cc2)C(=O)N[C@@H](CCC(=O)O)CC(=O)N[C@H](CCCCNC(=O)COCC(=O)NCCCC[C@@H](NC(=O)C[C@H](CCC(=O)O)NC(=O)[C@H](Cc2ccc(C(C)(C)C)cc2)NC(=O)[C@H]2NC(=O)[C@H](CC(C)C)NC(=O)[C@H]([C@@H](C)O)NC(=O)[C@H](CC(=O)O)NC(=O)[C@H](CO)NC(=O)[C@H](CCCNC(=N)N)N(C)C(=O)[C@@H](NC(C)=O)C(C)(C)SSC2(C)C)C(N)=O)C(N)=O)C(C)(C)SSC1(C)C [compound 218, [Ac-Pen-(N-Me-Arg)-Ser-Asp-Thr-Leu-Pen-Phe(4-tBu)-(β-homoGlu)-(D-Lys)-NH2]2-DIG] (I: Ac-[Pen][NMeR]SDTL[Pen][Phe(4-tBu)][β3hE][dK]-NH2 / II: Ac-[Pen][NMeR]SDTL[Pen][Phe(4-tBu)][β3hE][dK]-NH2; disulfide I:1-I:7, II:1-II:7; linker I:10-II:10 via Diglycolyl) | 0.78 | > 100000
